Several values for one entry are separate records, joined by “and”; a condition that tells them apart may be missing. Equal values may be shown once.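 How tested: cells in 96-well plates exposed to compound for 48 hours at five concentrations. Here, GI50 denotes the concentration required for 50% inhibition of growth. The concentration for full growth arrest is given as TGI.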
Legend:
Assay in all cases: DTP human tumour cell line panel, 48 h
786-0 renal = system: 786-0 renal
HOP-92 NSCLC = system: HOP-92 NSCLC
IGROV1 ovarian = system: IGROV1 ovarian
K-562 leukemia = system: K-562 leukemia
MDA-MB-435 = system: MDA-MB-435
MOLT-4 leukemia = system: MOLT-4 leukemia
OVCAR-3 ovarian = system: OVCAR-3 ovarian
OVCAR-5 ovarian = system: OVCAR-5 ovarian
PC-3 prostate = system: PC-3 prostate
SK-MEL-5 melanoma = system: SK-MEL-5 melanoma

SMILES | GI50 (786-0 renal) | TGI (786-0 renal) | GI50 (HOP-92 NSCLC) | TGI (HOP-92 NSCLC) | GI50 (IGROV1 ovarian) | TGI (IGROV1 ovarian) | GI50 (K-562 leukemia) | TGI (K-562 leukemia) | GI50 (MDA-MB-435) | TGI (MDA-MB-435) | GI50 (MOLT-4 leukemia) | TGI (MOLT-4 leukemia) | GI50 (OVCAR-3 ovarian) | TGI (OVCAR-3 ovarian) | GI50 (OVCAR-5 ovarian) | TGI (OVCAR-5 ovarian) | GI50 (PC-3 prostate) | TGI (PC-3 prostate) | GI50 (SK-MEL-5 melanoma) | TGI (SK-MEL-5 melanoma)
COc1ccc(C2=Nn3c(nnc3-c3ccc(F)c(Cl)c3)SC2)cc1 | > 100 µM | > 100 µM | 18.1 µM | 56.7 µM | > 100 µM | > 100 µM | > 100 µM | > 100 µM | > 100 µM | > 100 µM | > 100 µM | > 100 µM | > 100 µM | > 100 µM | 84.6 µM | > 100 µM | > 100 µM | > 100 µM | > 100 µM | > 100 µM
COC(=O)c1csc(-c2csc(CCNC(=O)OC(C)(C)C)n2)n1 |  | > 100 µM |  | > 100 µM |  | > 100 µM |  | > 100 µM |  | > 100 µM |  | > 100 µM |  | > 100 µM |  | > 100 µM |  | > 100 µM |  | > 100 µM
CC(=O)c1cc2c(Br)cccc2oc1=O |  | > 100 µM |  | > 100 µM |  | > 100 µM |  | > 100 µM |  | > 100 µM |  | > 100 µM |  | > 100 µM |  | > 100 µM |  | > 100 µM |  | > 100 µM
CCC/C=C/C=C/C(=O)OC1/C(=C/C(=O)OC)CC2CC(C(C)O)OC(=O)CC(O)CC3CC(OC(C)=O)C(C)(C)C(O)(CC4C/C(=C/C(=O)OC)CC(/C=C/C(C)(C)C1(O)O2)O4)O3 (stereo not given) | > 12.5 µM | 11 µM and > 12.5 µM | 7.79 µM and 5.61 µM and 4.84 µM | 10.9 µM and 11 µM and > 12.5 µM | > 10.9 µM and 5.09 µM and > 12.5 µM | > 10.9 µM and 6.06 µM and > 12.5 µM | 8.57 µM and 3.77 µM and > 12.5 µM | 10.9 µM and 11 µM and > 12.5 µM | > 12.5 µM | 11 µM and > 12.5 µM | 5.48 µM and 3.26 µM and > 12.5 µM | 10.6 µM and 10.5 µM and > 12.5 µM | > 10.9 µM and 8.33 µM and > 12.5 µM | > 10.9 µM and 11 µM and > 12.5 µM | > 11 µM | > 12.5 µM | > 12.5 µM | 11 µM and > 12.5 µM | 7.86 µM and 1.9 µM and > 12.5 µM | 10.9 µM and 11 µM and > 12.5 µM
O=C(O)/C=C/c1c2ccc(=O)c(O)c-2oc2c(O)c(O)ccc12 |  | 54.9 µM |  | > 100 µM |  | > 100 µM |  | 50.2 µM |  | 33.5 µM |  | 49.2 µM |  | > 100 µM |  | > 100 µM |  | > 100 µM |  | > 100 µM
COc1ccc(C2=C(c3ccc(OC)cc3)C(=O)OC2)cc1 | 2.11 µM | 10.9 µM | 7.45 µM | 51.9 µM | 5.03 µM | > 100 µM | 1.24 µM | 24.3 µM | 0.0752 µM | 0.4 µM | 1.29 µM | 23.8 µM | 0.216 µM | 0.712 µM | 20.2 µM | > 100 µM | 5.19 µM | 44.1 µM | 0.472 µM | 5.9 µM
CNc1c2ccccc2nc2occ(Cl)c12 | 34.6 µM | > 100 µM | 26.9 µM | > 100 µM | 50.5 µM | > 100 µM | 26.4 µM | > 100 µM | 17.2 µM | 79.9 µM | 13.3 µM | 64.6 µM | 24 µM | 75.2 µM | 47 µM | > 100 µM | 26.5 µM | > 100 µM | 16.6 µM | 34.8 µM
Nc1[nH]nc(Nc2ccccc2)c1-c1nc2ccccc2s1 | 1.34 µM | 3.08 µM | 1.4 µM | 3.77 µM | 2.58 µM | 8.88 µM | 1.88 µM | 7.81 µM | 1.94 µM | 4.89 µM | 0.683 µM | 7.81 µM | 1.7 µM | 3.76 µM | 2.26 µM | 8.77 µM | 1.58 µM | 3.39 µM | 4.66 µM | 15.8 µM
COc1cc(C[C@H]2COC(=O)[C@]2(O)Cc2ccc(OCc3ccccc3)c(OC)c2)ccc1OCc1ccccc1 | 85.4 µM | > 100 µM | > 100 µM | > 100 µM | > 100 µM | > 100 µM | 62.3 µM | > 100 µM | 20.9 µM | > 100 µM | 6.2 µM | > 100 µM | > 100 µM | > 100 µM | > 100 µM | > 100 µM | 74.7 µM | > 100 µM | 13.7 µM | 37.1 µM
CC(NCCN(C)C)C1CCC2C3CCc4cc(O)ccc4C3CCC12C (stereo not given) |  | 4.1 µM |  | 13.1 µM |  | 17.2 µM |  | 4.81 µM |  | 4.7 µM |  | 5.19 µM |  | 4.37 µM |  | 18.3 µM |  | 11.7 µM |  | 3.29 µM
COc1cc(/C=C/C(=O)c2c(C)n([O-])c3ccccc3[n+]2=O)cc(OC)c1OC | 6.94 µM | 20.1 µM | 3.47 µM | 15.7 µM | 3.99 µM | 15.6 µM | 5.88 µM | > 100 µM | 5.4 µM | 22.5 µM | 3.38 µM | 40.7 µM | 5.17 µM | 18.6 µM | 11.6 µM | 24.6 µM | 4.45 µM | 19.3 µM | 3.62 µM | 13.4 µM
CCN1C(=O)N(CC)C2C1NN=c1s/c(=C3\C(=O)Nc4ccccc43)c(=O)n12 (stereo not given) | 0.588 µM | 24.6 µM | 0.598 µM | 32.5 µM | 0.616 µM | 24.6 µM | 0.343 µM | > 100 µM | 0.147 µM | 0.357 µM | 0.549 µM | > 100 µM | 0.331 µM | 3.02 µM | 2.31 µM | > 100 µM | 0.393 µM | > 100 µM | 0.426 µM | > 100 µM
C[C@H]1C[C@@H](n2c(Nc3ccc(OC(F)(F)F)cc3)nc3cc(CCC(=O)O)ccc32)CC(C)(C)C1 | 5.5 µM | 19.7 µM | 16.4 µM | 32.1 µM | 12.6 µM | 28.7 µM | 11.9 µM | 37.7 µM | 10.4 µM | 22.9 µM | 9.37 µM | 32.6 µM | 13 µM | 25.8 µM | 17 µM | 31.5 µM | 11.9 µM | 27.9 µM | 5.38 µM | 17.9 µM
O=C1c2ccccc2C(=O)c2c1ccc1conc21 |  | 5.79 µM |  | 3.04 µM |  | 5.88 µM |  | 42.5 µM |  | 1.37 µM |  | 6.25 µM |  | 0.974 µM |  | 6.93 µM |  | 5.06 µM |  | 4.83 µM
